From patent US20190381017A1, “Compositions Comprising Serdexmethylphenidate Conjugates And Methods Of Use Thereof” (KemPharm, Inc., priority 2018, published 2019)
Where “and” joins values, the source holds several entries; their conditions need not be identical. Identical values can stand only once. Counter-ions that a name gives are not always drawn.

Experiments:
[1] = tested on: recreational stimulant users; assay: Intravenous abuse potential, VAS pharmacodynamic scores (Example 2); assay type: in vivo, human
Source text: “Drug liking” score, used herein, is the score used to assess the degree that a human participant likes a drug effect at the time the question is being asked (that is, at the moment). It is scored using a 0 to 100 point bipolar visual analogue scale (VAS) anchored in the center with a neutral anchor of “neither like nor dislike” (score of 50), on the left with “strong disliking” (score of 0) and on the right with “strong liking” (score of 100).
“Euphoria” or “Feeling High” score, used herein, is the term to describe the score used to assess the degree that a human participant is high at the time the question is being asked (that is, at the moment). It is scored using a 0 to 100 point unipolar visual analogue scale (VAS) anchored on the left with “Not at All” (score of 0) and on the right with “Extremely” (score of 100).
“Take Drug Again” score, used herein, is the term to describe the score used to assess the degree that a human participant wants to take the drug again, if given the opportunity, based on his/her opinion now, i.e., at the time the question is being asked. It is scored using a 0 to 100 point unipolar visual analogue scale (VAS) anchored on the left with “Definitely Would Not” (score of 0) and on the right with “Definitely Would” (score of 100).
“Overall Drug Liking” score, used herein, is the term to describe the score used to assess the human subject's global perception of drug liking (i.e., the subjective effects over the whole course of the drug experience including any carryover effects). Subjects respond to the statement “Overall, my liking for this drug is.” The question is scored using a 0-100 point bipolar VAS anchored on the left with “Strong Disliking” (score of 0); “Neither Like nor Dislike” (score of 50) in the middle, and anchored on the right with “Strong Liking” (score of 100). This scale has the advantage of the human subject being relatively less affected or unaffected by acute study drug effects (if any) by the time of the assessment.
“Good Effects” score, used herein, is the term to describe the score used to assess the degree that a human participant is feeling good drug effects at the time the question is being asked (that is, at the moment). Subjects respond to the statement “At this moment, I can feel good drug effects.” It is scored using a 0 to 100 point unipolar visual analogue scale (VAS) anchored on the left with “Not at All” (score of 0) and on the right with “Extremely” (score of 100).
Safety assessments were performed throughout the study.

[2] = tested on: healthy, nondependent, recreational stimulant users with intranasal insufflation experience; assay: Intranasal abuse potential, VAS pharmacodynamic scores (Example 5); assay type: in vivo, human
Protocol: The study consisted of a Screening Period, an in-clinic Drug Discrimination Phase, a Treatment Phase, and a Follow-Up Visit.
Subjects who successfully completed the Screening Period returned to the clinic to complete the Drug Discrimination Phase. The Drug Discrimination Test was performed to ensure that subjects can differentiate between the effects of a single dose of d-methylphenidate hydrochloride and placebo, administered intranasally. Subjects who successfully completed the Drug Discrimination Phase remained as inpatients to enter the Treatment Phase. The Drug Discrimination Phase was a double-blind, intranasal, single-dose, 2-treatment, 2-period, 2-sequence, randomized, crossover design.
All subjects were required to fast for at least 8 hours prior to each dose of study drug until approximately 4 hours after each dose. Abuse potential measures and pharmacokinetic samples were collected at different times after the administration of study drug. Subjects who successfully completed the Drug Discrimination Phase and who qualified for the Treatment Phase remained as inpatients to enter the Treatment Phase.
The placebo dose consisted of 80 mg of microcrystalline cellulose to create the same volume.
On dosing days in the Treatment Phase, blood samples were collected for the measurement of the plasma concentrations of SDX, d-methylphenidate (d-MPH), l-methylphenidate (l-MPH) and ritalinic acid at predose and at 0.25, 0.5, 0.75, 1, 1.5, 2, 3, 4, 5, 6, 7, 8, 9, 10, 12, 16, 24, 36, and 48 hours±5 minutes after each dose of study drug. […] All VAS pharmacodynamic assessments except Take Drug Again and Overall Drug Liking were performed at 0.25, 0.5, 0.75, 1, 1.5, 2, 3, 4, 5, 6, 7, 8, 10, 12, 24 hours±5 minutes postdose. In addition, predose assessments of Feeling High, and Drowsiness/Alertness were collected. The Take Drug Again and Overall Drug Liking VAS assessments were performed at 12 and 24 hours±5 minutes postdose.

[3] = SDX Cl 30 mg, d-MPH HCl 15 mg, 12 hours
[4] = SDX Cl 30 mg, d-MPH HCl 15 mg, 12 hours, unipolar VAS
[5] = SDX Cl 30 mg, d-MPH HCl 15 mg, 24 hours
[6] = SDX Cl 30 mg, d-MPH HCl 15 mg, 24 hours, unipolar VAS
[7] = SDX Cl 30 mg, d-MPH HCl 15 mg, bipolar VAS
[8] = SDX Cl 30 mg, d-MPH HCl 15 mg, unipolar VAS
[9] = d-MPH HCl 15 mg vs SDX Cl 30 mg, bipolar VAS
[10] = d-MPH HCl 15 mg vs SDX Cl 30 mg, unipolar VAS
[11] = SDX Cl 80 mg, d-MPH HCl 40 mg, 12 hours, bipolar VAS
[12] = SDX Cl 80 mg, d-MPH HCl 40 mg, 24 hours, bipolar VAS
[13] = SDX Cl 80 mg, d-MPH HCl 40 mg, bipolar VAS
[14] = SDX Cl 80 mg, d-MPH HCl 40 mg, unipolar VAS
[15] = d-MPH HCl 40 mg vs SDX Cl 80 mg

## COC(=O)[C@H](c1ccccc1)[C@H]1CCCCN1 [d-methylphenidate hydrochloride, d-threo-methylphenidate hydrochloride]
[1]; [3]
  Mean Overall Drug Liking: 68.0
  Median Overall Drug Liking: 73.0
[1]; [4]
  Mean Take Drug Again: 61.3
  Median Take Drug Again: 69.5
[1]; [5]
  Mean Overall Drug Liking: 67.3
  Median Overall Drug Liking: 70.5
[1]; [6]
  Mean Take Drug Again: 54.9
  Median Take Drug Again: 58.5
[1]; [7]
  Drug Liking Emax (median): 84.5
  Overall Drug Liking Emax (mean): 72.4
  Overall Drug Liking Emax (median): 74.0
[1]; [8]
  Feeling High Emax (mean): 77.4
  Feeling High Emax (median): 79.0
  Good Effects Emax (mean): 82.1
  Good Effects Emax (median): 85.0
  Take Drug Again Emax (mean): 63.3
  Take Drug Again Emax (median): 72.5
[1]; [9]
  Median difference Drug Liking Emax: 29.0
  Median difference Overall Drug Liking, 12 hours: 16.0
  Median difference Overall Drug Liking, 24 hours: 13.5
  Median difference Overall Drug Liking, Emax: 18.0
[1]; [10]
  Mean difference Take Drug Again, 12 hours: 43.3
  Mean difference Take Drug Again, 24 hours: 39.2
  Mean difference Take Drug Again, Emax: 43.1
  Median difference Feeling High Emax: 67.0
  Median difference Good Effects Emax: 73.0
[2]; SDX Cl 80 mg, d-MPH HCl 40 mg
  Mean difference Any Effect Emax vs placebo: 88.6
  Mean difference Ease of Nasal Insufflation Emax vs placebo: 11.3
  Mean difference Feeling Drowsy/Alert Emax vs placebo: 42.3
  Mean difference Feeling High Emax vs placebo: 85.2
  Mean difference Good Effects Emax vs placebo: 90.0
  Mean difference Overall Drug Liking vs placebo, 24 hours: 26.1
  Mean difference Take Drug Again vs placebo, 12 hours: 29.1
  Mean difference Take Drug Again vs placebo, 24 hours: 28.3
  Mean difference Take Drug Again vs placebo, Emax: 31.1
  Median difference Bad Effects Emax vs placebo: 10.5
[2]; [11]
  Mean Overall Drug Liking: 79.6
  Mean Take Drug Again: 78.2
  Median Overall Drug Liking: 87
  Median Take Drug Again: 91
[2]; [12]
  Mean Overall Drug Liking: 76.3
  Mean Take Drug Again: 77.4
  Median Overall Drug Liking: 82
  Median Take Drug Again: 94
[2]; [13]
  Drug Liking Emax (median): 100
  Feeling Drowsy/Alert Emax (mean): 93.4
  Feeling Drowsy/Alert Emax (median): 100
  Overall Drug Liking Emax (mean): 81.0
  Overall Drug Liking Emax (median): 90
  Take Drug Again Emax (mean): 80.3
  Take Drug Again Emax (median): 95
[2]; SDX Cl 80 mg, d-MPH HCl 40 mg, bipolar VAS, hydrochloride
  Drug Liking Emax (mean): 93 and 93.2
[2]; [14]
  Any Effect Emax (mean): 89.2
  Any Effect Emax (median): 100
  Bad Effects Emax (mean): 18.6
  Bad Effects Emax (median): 2
  Ease of Nasal Insufflation (mean): 18.1
  Ease of Nasal Insufflation (median): 7
  Feeling High Emax (mean): 88.0
  Feeling High Emax (median): 97
  Good Effects Emax (mean): 90.6
  Good Effects Emax (median): 97
[2]; d-MPH HCl 40 mg
  Median difference Drug Liking Emax vs placebo: 45
  Median difference Overall Drug Liking vs placebo, 12 hours: 33.5
  Median difference Overall Drug Liking vs placebo, Emax: 35
[2]; [15]
  Mean difference Any Effect Emax: 39.8
  Mean difference Drug Liking Emax: 22.3
  Mean difference Ease of Nasal Insufflation Emax: -47.7
  Mean difference Feeling Drowsy/Alert Emax: 22.2
  Mean difference Feeling High Emax: 44.5
  Mean difference Good Effects Emax: 45.7
  Mean difference Overall Drug Liking, 12 hours: 19.2
  Mean difference Overall Drug Liking, 24 hours: 17.3
  Mean difference Overall Drug Liking, Emax: 19.3
  Mean difference Take Drug Again, 12 hours: 21.5
  Mean difference Take Drug Again, 24 hours: 21.5
  Mean difference Take Drug Again, Emax: 20.3
  Median difference Bad Effects Emax: 0
